Among the data in PubChem BioAssay (NCI) are GI50 and TGI values, retold here.

Holding throughout (test): NCI tumour cell line growth inhibition, 48 h
Assay [1] has as its system UACC-62 melanoma.
The subject of assay [2] is CCRF-CEM leukemia.
Assay [3] deals with NCI-H522 lung.
For assay [4], the system named is A549 NSCLC.
In assay [5] the test system is HT29 colon.
Assay [6] has as its system NCI-H23 lung.
Assay [7] concerns HS 578T breast.
In assay [8] the test system is SK-OV-3 ovarian.
Assay [9] has as its system MCF7 breast.
Assay [10] deals with OVCAR-3 ovarian.

Values joined by “and” are separate entries in the source; they are usually repeats but may differ in a detail not shown here. Equal entries are not always repeated.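 Growth conditions: 96-well plates. Treatment: test compound, 48 hours, 5 concentrations. Analysis: linear interpolation between bracketing concentrations; unreached endpoints set to highest concentration. The concentration for 50% growth inhibition is given as GI50. TGI: total growth inhibition.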

For `Cc1ccc(OCC2OC(n3cnc4c(Br)nc(Br)nc43)CC2Oc2ccc(C)cc2)cc1` (centres undefined), the GI50 was 3.1 µM in [1]; 1.8 µM in assay [2]; 1.65 µM in [3]; 2.32 µM in assay [5]; 6.1 µM in [6]; 14.4 µM and 2.96 µM in [7]. The figures for the GI50 in [8], in [9] and in assay [10] were 11.2 µM, 2.52 µM and 3.77 µM, respectively. Moreover, the TGI in [1] was 11.4 µM and 20.6 µM; in [2] it was 3.44 µM and > 25.5 µM; in [3] it was 2.8 µM and 3.27 µM; in assay [4], 30 µM and > 41.9 µM; in [5] it was 8 µM and 7.2 µM; in assay [6], 16.7 µM and 15.4 µM. For the same compound, the TGI in assay [7] was 36 µM and 7.18 µM; in assay [8] it was 21.4 µM and > 54.2 µM; in assay [9] it was 8.4 µM and 30.3 µM; in assay [10], 14.3 µM and 19.1 µM.
For the compound `COc1ccc(/C=C2\c3cc(OC)c(OC)c(OC)c3CC[C@@H]2O)cc1F`, the GI50 is 0.283 µM in [1]; 0.815 µM in [2]; 0.156 µM in assay [3]; 0.693 µM in assay [4]; 1.36 µM in assay [5]; 0.318 µM in assay [6]. The GI50 was 0.299 µM in assay [7], 0.306 µM in assay [8], 0.088 µM in assay [9] and 0.262 µM in assay [10]. In addition, the TGI in [1] is > 100 µM; in assay [2] it was > 100 µM; in [3], 0.639 µM; in assay [4], > 100 µM; in assay [5], 13.4 µM; in assay [6], > 100 µM. Moreover, the TGI is > 100 µM in assay [7], 61.1 µM in assay [8], > 100 µM in [9] and > 100 µM in assay [10].
Turning to `CN(C)c1ccc(N=C2C=CC(=O)c3ccccc32)cc1`, the GI50 is 1.71 µM in assay [1]; 2.13 µM in assay [2]; 1.97 µM in [3]; 1.82 µM in assay [4]; 3.62 µM in assay [5]; 2.41 µM in assay [6]. The GI50 in assay [7] was 1.97 µM; in [8], 17 µM; in [9], 1.87 µM; in assay [10], 1.28 µM. Moreover, the TGI in assay [1] was 3.24 µM; in assay [2], 6.17 µM; in [3] it was 4.51 µM; in assay [4], 3.89 µM; in [5], 12.2 µM; in assay [6], 8.04 µM. The TGI is 6.09 µM in [7], > 100 µM in assay [8], 7.46 µM in assay [9] and 3.08 µM in [10].
Regarding `COc1ccc(OC)c(/C=C/c2nc(SCc3ccccc3)n(-c3ccc(Cl)cc3)n2)c1`, the GI50 in assay [1] was 6.15 µM; in assay [2], 4.11 µM; in assay [3], 3.39 µM; in assay [4] it was 6.79 µM; in assay [5] it was 3.93 µM; in assay [6], 6.85 µM. Besides, the GI50 in assay [7] is 5.23 µM; in [8] it was 8.21 µM; in assay [9] it was 4.78 µM; in [10], 3.54 µM. In addition, the TGI was > 100 µM in [1]; > 100 µM in assay [2]; 25 µM in assay [3]; > 100 µM in [4]; 21.5 µM in [5]; > 100 µM in assay [6]. In addition, the TGI in assay [7] was > 100 µM; in assay [8], > 100 µM; in assay [9], > 100 µM; in assay [10], 12 µM.
Regarding `CN(C)c1ccc2nc(CC(O)(C(F)(F)F)C(F)(F)F)ccc2c1`, the TGI in [1], in assay [2], in [3], in assay [4], in assay [5] and in assay [6] was > 10 µM each time. Further, the TGI in assay [7], in assay [8], in assay [9] and in assay [10] was > 10 µM in each case.
For the compound `O=C(O)CCC(C(=O)O)N1C(=O)C2C3CCC(C3)C2C1=O` (centres undefined), the TGI in assay [1], in [3], in [4], in [5], in [6] and in assay [7] was > 100 µM throughout. Moreover, the TGI in assay [8], in [9] and in assay [10] was > 100 µM throughout.
For the compound `C/C(=N/N=C(N)N)c1ccc(NC(=O)Nc2ccc(/C(C)=N/N=C(N)N)cc2)cc1`, the GI50 in assay [1] was 17.4 µM; in [2], 21.7 µM; in assay [3] it was 7.14 µM; in assay [4], 19.4 µM; in [5] it was 27.3 µM; in assay [6], 13.9 µM. The GI50 in assay [7] was 26.5 µM; in assay [8], 36.3 µM; in [9], 4.48 µM; in assay [10] it was 18.6 µM. For the same compound, the TGI in assay [1] was 45.3 µM; in [2], 97.8 µM; in assay [3] it was 28.8 µM; in assay [4], 54.8 µM; in [5], > 100 µM; in assay [6], 48 µM. The TGI in [7] was > 66.6 µM; in [8] it was > 82.3 µM; in [9] it was 31.2 µM; in assay [10] it was > 61.6 µM.
In the case of `CC1=C([Se]CC(OC(=O)[C@@H](CO)NC(=O)OC(C)(C)C)C(=O)NCCCCCC(=O)OCc2ccccc2)C(=O)c2ccccc2C1=O` (some centres undefined), the GI50 in assay [1] was 1.68 µM; in [3], 2.02 µM; in [4] it was 1.37 µM; in assay [5] it was 2.15 µM; in assay [7], 1.99 µM; in assay [8], 1.28 µM. Besides, the GI50 is 1.61 µM in [9] and 1.79 µM in assay [10]. Also, the TGI in assay [1] came out at 3.07 µM; in assay [3] it was 3.5 µM; in [4] it was 3.07 µM; in [5] it was 3.97 µM; in assay [7], 4.64 µM; in assay [8] it was 2.56 µM. In addition, the TGI in [9] was 3.36 µM; in assay [10], 3.19 µM.
